# Assay results: publication PMC4476799, “Englerin A Agonizes the TRPC4/C5 Cation Channels to Inhibit Tumor Cell Line Proliferation” (PLoS ONE, 2015)
# pEC50, pIC50: −log10 of the molar value. Where two headings read alike, the source gives them in different places.
# Test system: cancer cell lines from the cancer cell line encyclopedia (CCLE)
# Test: Cell line profiling (CLiP) proliferation experiment
# Assay type: cell-based
# Conditions: Homo sapiens; for pIC50: read-out: Crossing Point; for pEC50: read-out: Inflection Point
# Procedure: Compound profiling experiment and data analysis was performed as previously described. Data was imported and plotted using the Tibco Spotfire DXP application. Lines were categorized as sensitive, intermediate and refractory as follows: Amax<-40 & Inflection Point <2 ~ Sensitive, Amax>-20 & Inflection Point >10 ~ Refractory, all else were called Intermediate. Cancer Cell line HG-U133 Plus 2 data was processed and normalized as described. […] Five sets of refractory cell lines were generated from the pool of refractory cell lines trying to match the lineage composition of the set of sensitive cell lines. The limma package was used as previously described to perform the statistical comparison.
# [1] = RS4-11, RS4;11 (haematopoietic_and_lymphoid_tissue)
# [2] = RS4-11, cell line RS4;11, haematopoietic_and_lymphoid_tissue, acute_lymphoblastic_B_cell_leukaemia
# [3] = RT-112, cell line RT-112, urinary_tract, transitional_cell_carcinoma
# [4] = RVH-421, cell line RVH-421, skin
# [5] = SCaBER, cell line SCaBER, urinary_tract, transitional_cell_carcinoma
# [6] = SET-2, cell line Set-2, haematopoietic_and_lymphoid_tissue, essential_thrombocythaemia
# [7] = SF-126, cell line SF126, central_nervous_system, astrocytoma
# [8] = SHP77, cell line SHP-77, lung, small_cell_carcinoma
# [9] = SJRH30, cell line SJRH30, soft_tissue
# [10] = SK-CO-1, cell line SK-CO-1, large_intestine, adenocarcinoma
# [11] = SK-ES1, cell line SK-ES-1, bone
# [12] = SK-MEL-24, cell line SK-MEL-24, skin
# [13] = SK-MES-1, cell line SK-MES-1, lung, squamous_cell_carcinoma
# [14] = SK-N-SH, cell line SK-N-SH, autonomic_ganglia
# [15] = SKM-1, cell line SKM-1, haematopoietic_and_lymphoid_tissue, acute_myeloid_leukaemia
structure (smiles),measurement,setting,value
CC(C)[C@@]12C[C@@H](O)[C@@](C)(O1)[C@@H]1CC[C@@H](C)[C@H]1[C@@H]2OC(=O)/C=C/c1ccccc1 [Englerin B],pIC50,[1],4.75
same,pEC50,[1],4.75
same,pIC50,[2],4.75
same,pEC50,[2],4.75
same,pIC50,"RT-112, RT-112 cells",4.78
same,pEC50,"RT-112, RT-112 cells",4.78
same,pIC50,[3],4.78
same,pEC50,[3],4.78
same,pIC50,"RVH-421, RVH-421 cells",< 4.52
same,pEC50,"RVH-421, RVH-421 cells",4.93
same,pIC50,[4],< 4.52
same,pEC50,[4],4.93
same,pEC50,"Raji, Raji cells",4.74
same,pIC50,"Raji, cell line Raji",4.76
same,pEC50,"Raji, cell line Raji",4.74
same,pIC50,"Rec1, REC-1 cells",4.73
same,pEC50,"Rec1, REC-1 cells",4.73
same,pIC50,"Rec1, cell line REC-1",4.73
same,pEC50,"Rec1, cell line REC-1",4.73
same,pIC50,"Rh18, RH-18 cells",< 4.52
same,pIC50,"Rh18, cell line RH-18",< 4.52
same,pEC50,"Rh41, RH-41 (soft_tissue)",4.94
same,pIC50,"Rh41, cell line RH-41",4.94
same,pEC50,"Rh41, cell line RH-41",4.94
same,pIC50,"SCaBER, SCaBER (urinary_tract)",< 4.52
same,pEC50,"SCaBER, SCaBER (urinary_tract)",4.89
same,pIC50,[5],< 4.52
same,pEC50,[5],4.89
same,pEC50,"SET-2, Set-2 (haematopoietic_and_lymphoid_tissue)",4.64
same,pIC50,[6],4.80
same,pEC50,[6],4.64
same,pEC50,"SF-126, SF126 cells",4.91
same,pIC50,[7],4.63
same,pEC50,[7],4.91
same,pIC50,"SF-295, cell line SF-295, central_nervous_system, astrocytoma_Grade_IV",4.70
same,pIC50,"SHP77, SHP-77 cells",< 4.52
same,pEC50,"SHP77, SHP-77 cells",4.84
same,pIC50,[8],< 4.52
same,pEC50,[8],4.84
same,pIC50,[9],4.76
same,pEC50,[9],4.81
same,pEC50,"SJSA-1, SJSA-1 cells",4.79
same,pIC50,"SJSA-1, cell line SJSA-1, bone",4.54
same,pEC50,"SJSA-1, cell line SJSA-1, bone",4.79
same,pIC50,"SK-BR-3, SK-BR-3 cells",< 4.52
same,pIC50,"SK-BR-3, cell line SK-BR-3, breast",< 4.52
same,pEC50,"SK-CO-1, SK-CO-1 (large_intestine)",4.94
same,pIC50,[10],4.75
same,pEC50,[10],4.94
same,pIC50,[11],4.66
same,pEC50,[11],4.69
same,pIC50,"SK-LMS-1, SK-LMS-1 cells",< 4.52
same,pIC50,"SK-LMS-1, cell line SK-LMS-1, soft_tissue",< 4.52
same,pIC50,"SK-LU-1, SK-LU-1 (lung)",< 4.52
same,pIC50,"SK-LU-1, cell line SK-LU-1, lung, adenocarcinoma",< 4.52
same,pIC50,"SK-MEL3, SK-MEL-3 cells",< 4.52
same,pIC50,"SK-MEL3, cell line SK-MEL-3, skin",< 4.52
same,pIC50,"SK-MEL-1, cell line SK-MEL-1, skin",4.71
same,pIC50,"SK-MEL-2, SK-MEL-2 (skin)",< 4.52
same,pIC50,"SK-MEL-2, SK-MEL-2, second row, PRIMARY_SITE (Empty)",< 4.52
same,pIC50,"SK-MEL-2, cell line SK-MEL-2, skin",< 4.52
same,pIC50,"SK-MEL-5, SK-MEL-5 (skin)",< 4.52
same,pIC50,"SK-MEL-5, cell line SK-MEL-5, skin",< 4.52
same,pIC50,"SK-MEL-24, SK-MEL-24 (skin)",< 4.52
same,pIC50,[12],< 4.52
same,pEC50,[12],4.95
same,pIC50,"SK-MEL-30, cell line SK-MEL-30, skin",4.55
same,pEC50,"SK-MES-1, SK-MES-1 cells",4.60
same,pIC50,[13],4.58
same,pEC50,[13],4.60
same,pIC50,"SK-N-AS, SK-N-AS (autonomic_ganglia)",< 4.52
same,pIC50,"SK-N-AS, cell line SK-N-AS, autonomic_ganglia",< 4.52
same,pIC50,"SK-N-DZ, SK-N-DZ cells",< 4.52
same,pIC50,"SK-N-DZ, cell line SK-N-DZ, autonomic_ganglia",< 4.52
same,pIC50,"SK-N-FI, SK-N-FI (autonomic_ganglia)",< 4.52
same,pIC50,"SK-N-FI, cell line SK-N-FI, autonomic_ganglia",< 4.52
same,pIC50,"SK-N-SH, cell line SK-N-SH (autonomic_ganglia, NS)",< 4.52
same,pIC50,[14],< 4.52
same,pEC50,[14],5.11
same,pIC50,"SK-OV-3, SK-OV-3 (ovary)",< 4.52
same,pIC50,"SK-OV-3, cell line SK-OV-3, ovary, adenocarcinoma",< 4.52
same,pIC50,"SK-UT-1, SK-UT-1 (soft_tissue)",< 4.52
same,pIC50,"SK-UT-1, cell line SK-UT-1, soft_tissue",< 4.52
same,pIC50,[15],4.68
same,pEC50,[15],4.61
same,pIC50,"SKM-1, cell line SKM-1",4.68
same,pIC50,"SKNBE2, cell line SK-N-BE(2), autonomic_ganglia",< 4.52
same,pIC50,"SKNBE2, cell line SK-N-BE(2)",< 4.52
same,pIC50,"SNB-19, SNB-19 cells",< 4.52
same,pIC50,"SNB-19, cell line SNB-19, central_nervous_system, astrocytoma_Grade_IV",< 4.52
same,pIC50,"SNU1, SNU-1 (stomach)",< 4.52
same,pEC50,"SNU1, SNU-1 (stomach)",4.92
